In patent US20200131159A1, “POSITIVE ALLOSTERIC MODULATORS OF THE MUSCARINIC ACETYLCHOLINE RECEPTOR M1” (Vanderbilt University, priority 2018, published 2020):

Molecular target: T1, human mAChR M1 (Homo sapiens, UniProt P11229)
T1 construct: hM1 and hM4 cDNAs were purchased from Missouri S&T cDNA Resource; host or cells: CHO-K1 cells, stably transfected with Lipofectamine2000
T1 sequence (P11229 1-460): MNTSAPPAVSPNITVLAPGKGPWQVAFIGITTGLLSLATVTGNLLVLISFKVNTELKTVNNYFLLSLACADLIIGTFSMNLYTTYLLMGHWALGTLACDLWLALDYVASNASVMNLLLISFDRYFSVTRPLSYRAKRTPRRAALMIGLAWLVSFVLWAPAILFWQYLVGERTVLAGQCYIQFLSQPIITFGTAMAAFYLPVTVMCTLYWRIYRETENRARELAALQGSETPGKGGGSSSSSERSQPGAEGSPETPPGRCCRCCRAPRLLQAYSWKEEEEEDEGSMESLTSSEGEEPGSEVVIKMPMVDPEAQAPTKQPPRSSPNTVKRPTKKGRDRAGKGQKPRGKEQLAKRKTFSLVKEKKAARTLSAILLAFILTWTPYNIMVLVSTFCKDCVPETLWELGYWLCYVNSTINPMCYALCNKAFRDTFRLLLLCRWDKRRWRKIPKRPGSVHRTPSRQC
Assay: mAChR M1 cell-based functional assay (calcium mobilization, PAM mode, EC20 acetylcholine)
Details: CHO-K1 cells expressing hM1, calcium flux (Fluo-4); for Emax: EC20 acetylcholine response; for EC50: concentration-dependent increase in the EC20 acetylcholine response
Text: Chinese hamster ovary (CHO-K1) cells stably expressing rat (r)M1 were purchased from the American Type Culture Collection and cultured according to their indicated protocol. CHO cells stably expressing human (h)M2, hM3, and hM5 were described previously (Levey, et al., 1991); hM1 and hM4 cDNAs were purchased from Missouri S&T cDNA Resource; rM4 cDNA was provided by T. I. Bonner (National Institutes of Health, Bethesda, Md.). rM2 and rM3 were cloned from a rat brain cDNA library and sequence verified. hM1, rM2, rM3, hM4, and rM4 cDNAs were used to stably transfect CHO-K1 cells purchased from the American Type Culture Collection using Lipofectamine2000. To make stable rM2, hM2, rM3, hM4, and rM4 cell lines for use in calcium mobilization assays, these cells also were stably transfected with a chimeric G-protein (Gqi5) (provided by B. R. Conklin, University of California, San Francisco) using Lipofectamine 2000. rM1, hM1, rM3, hM3, rM5, and hM5 cells were grown in Ham's F-12 medium containing 10% heat-inactivated fetal bovine serum (FBS), 20 mM HEPES, and 50 µg/mL G418 sulfate. rM2-Gqi5, hM2-Gqi5, and hM4-Gqi5 cells were grown in the same medium also containing 500 μg/mL Hygromycin B. Stable rM4-Gqi5 cells were grown in DMEM containing 10% heat-inactivated FBS, 20 mM HEPES, 400 μg/mL G418 sulfate, and 500 μg/mL Hygromycin B.
For high throughput measurement of agonist-evoked increases in intracellular calcium, CHO-K1 cells stably expressing muscarinic receptors were plated in growth medium lacking G418 and hygromycin at 15,000 cells/20 μL/well in Greiner 384-well black-walled, tissue culture (TC)-treated, clear-bottom plates (VWR). Cells were incubated overnight at 37° C. and 5% CO2. The next day, cells were washed using an ELX 405 (BioTek) with four washes (80 μL) of assay buffer then aspirated to 20 μL. Next, 20 μL of 16 μM Fluo-4/acetoxymethyl ester (Invitrogen, Carlsbad, Calif.) prepared as a 2.3 mM stock in DMSO and mixed in a 1:1 ratio with 10% (w/v) Pluronic F-127 and diluted in assay buffer was added to the wells and the cell plates were incubated for 50 min at 37° C. and 5% CO2. Dye was removed by washing with the ELX 405 (four 80 μL washes of assay buffer) then aspirated to 20 μL. Compound master plates were formatted in an 11 point CRC format (1:3 dilutions) in 100% DMSO with a starting concentration of 10 mM using the BRAVO liquid handler (Agilent). Test compound CRCs were then transferred to daughter plates (240 nL) using the Echo acoustic plate reformatter (Labcyte, Sunnyvale, Calif.) and then diluted into assay buffer (40 μL) to a 2× stock using a Thermo Fisher Combi (Thermo Fisher Scientific, Waltham, Mass.).
Calcium flux was measured using the Functional Drug Screening System (FDSS) 6000 (Hamamatsu Corporation, Tokyo, Japan) as an increase in the fluorescent static ratio. Compounds were applied to cells (20 μL, 2×) using the automated system of the FDSS 6000 at 4 s into the 300 s protocol and the data were collected at 1 Hz. […] Agonist activity was analyzed as a concentration-dependent increase in calcium mobilization upon compound addition. Emax values for agonist activity are expressed relative to the maximum for acetylcholine. Positive allosteric modulator activity was analyzed as a concentration-dependent increase in the EC20 acetylcholine response. Antagonist activity was analyzed as a concentration-dependent decrease in the […] acetylcholine response. Concentration-response curves were generated using a four-parameter logistical equation in XLfit curve fitting software (IDBS, Bridgewater, N.J.) for Excel (Microsoft, Redmond, Wash.) or Prism (GraphPad Software, Inc., San Diego, Calif.).
Activity (EC50 and Emax) was determined in the mAChR M1 cell-based functional assay as described above and the data are shown in Table 2. The compound numbers correspond to the compound numbers used in Table 1.

Emax [%] | EC50 [nM] | SMILES
80 | 460 | O=C(N[C@H]1CCOC[C@@H]1O)c1cc(Cc2ccc(-n3cccn3)cc2)cc2cccnc12 [compound 1, N-[(3R,4S)-3-hydroxytetrahydropyran-4-yl]-6-[(4-pyrazol-1-ylphenyl)methyl]quinoline-8-carboxamide]
81 | 1000 | O=C(N[C@H]1CCCC[C@@H]1O)c1cc(Cc2ccc(-n3cccn3)cc2)cc2cccnc12 [compound 2, N-[(1S,2S)-2-hydroxycyclohexyl]-6-[(4-pyrazol-1-ylphenyl)methyl]quinoline-8-carboxamide]
45 | 2980 | O=C(NC1CCOCC1)c1cc(Cc2ccc(-n3cccn3)cc2)cc2cccnc12 [compound 3, 6-[(4-pyrazol-1-ylphenyl)methyl]-N-tetrahydropyran-4-yl-quinoline-8-carboxamide]
67 | 6030 | O=C(NC1CC2(COC2)C1)c1cc(Cc2ccc(-n3cccn3)cc2)cc2cccnc12 [compound 4, N-(2-oxaspiro[3.3]heptan-6-yl)-6-[(4-pyrazol-1-ylphenyl)methyl]quinoline-8-carboxamide]
76 | 1660 | O=C(N[C@H]1CCC[C@@H]1O)c1cc(Cc2ccc(-n3cccn3)cc2)cc2cccnc12 [compound 5, N-[(1S,2S)-2-hydroxycyclopentyl]-6-[(4-pyrazol-1-ylphenyl)methyl]quinoline-8-carboxamide]
57 | 5490 | O=C(N[C@H]1CC[C@@H]1O)c1cc(Cc2ccc(-n3cccn3)cc2)cc2cccnc12 [compound 6, N-[(1S,2S)-2-hydroxycyclobutyl]-6-[(4-pyrazol-1-ylphenyl)methyl]quinoline-8-carboxamide]
87 | 2030 | O=C(N[C@H]1CCCCC[C@@H]1O)c1cc(Cc2ccc(-n3cccn3)cc2)cc2cccnc12 [compound 7, N-[(1S,2S)-2-hydroxycycloheptyl]-6-[(4-pyrazol-1-ylphenyl)methyl]quinoline-8-carboxamide]
49 | 8160 | O=C(NCC1CCOCC1)c1cc(Cc2ccc(-n3cccn3)cc2)cc2cccnc12 [compound 8, 6-[(4-pyrazol-1-ylphenyl)methyl]-N-(tetrahydropyran-4-ylmethyl)quinoline-8-carboxamide]
79 | 308 | Cn1ccc(-c2ccc(Cc3cc(C(=O)N[C@H]4CCOC[C@@H]4O)c4ncccc4c3)cn2)n1 [compound 9, N-[(3R,4S)-3-hydroxytetrahydropyran-4-yl]-6-[[6-(1-methylpyrazol-3-yl)-3-pyridyl]methyl]quinoline-8-carboxamide]
84 | 922 | Cn1ccc(-c2ccc(Cc3cc(C(=O)N[C@H]4CCCCC[C@@H]4O)c4ncccc4c3)cn2)n1 [compound 10, N-[(1S,2S)-2-hydroxycycloheptyl]-6-[[6-(1-methylpyrazol-3-yl)-3-pyridyl]methyl]quinoline-8-carboxamide]
82 | 384 | Cn1ccc(-c2ccc(Cc3cc(C(=O)N[C@H]4CCCC[C@@H]4O)c4ncccc4c3)cn2)n1 [compound 11, N-[(1S,2S)-2-hydroxycyclohexyl]-6-[[6-(1-methylpyrazol-3-yl)-3-pyridyl]methyl]quinoline-8-carboxamide]
82 | 1390 | Cn1ccc(-c2ccc(Cc3cc(C(=O)N[C@H]4CCC[C@@H]4O)c4ncccc4c3)cn2)n1 [compound 12, N-[(1S,2S)-2-hydroxycyclopentyl]-6-[[6-(1-methylpyrazol-3-yl)-3-pyridyl]methyl]quinoline-8-carboxamide]
75 |  | Cn1ccc(-c2ccc(Cc3cc(C(=O)N[C@H]4CC[C@@H]4O)c4ncccc4c3)cn2)n1 [compound 13, N-[(1S,2S)-2-hydroxycyclobutyl]-6-[[6-(1-methylpyrazol-3-yl)-3-pyridyl]methyl]quinoline-8-carboxamide]
73 | 5290 | Cn1ccc(-c2ccc(Cc3cc(C(=O)NC4CC5(COC5)C4)c4ncccc4c3)cn2)n1 [compound 14, 6-[[6-(1-methylpyrazol-3-yl)-3-pyridyl]methyl]-N-(2-oxaspiro[3.3]heptan-6-yl)quinoline-8-carboxamide]
66 |  | Cn1ccc(-c2ccc(Cc3cc(C(=O)NC4CCOCC4)c4ncccc4c3)cn2)n1 [compound 15, 6-[[6-(1-methylpyrazol-3-yl)-3-pyridyl]methyl]-N-tetrahydropyran-4-yl-quinoline-8-carboxamide]
86 | 438 | Cc1nc(-c2ccc(Cc3cc(C(=O)N[C@H]4CCOC[C@@H]4O)c4ncccc4c3)cc2)co1 [compound 16, N-[(3R,4S)-3-hydroxytetrahydropyran-4-yl]-6-[[4-(2-methyloxazol-4-yl)phenyl]methyl]quinoline-8-carboxamide]
65 | 1820 | Cc1nc(-c2ccc(Cc3cc(C(=O)N[C@H]4CCCCC[C@@H]4O)c4ncccc4c3)cc2)co1 [compound 17, N-[(1S,2S)-2-hydroxycycloheptyl]-6-[[4-(2-methyloxazol-4-yl)phenyl]methyl]quinoline-8-carboxamide]
82 | 784 | Cc1nc(-c2ccc(Cc3cc(C(=O)N[C@H]4CCCC[C@@H]4O)c4ncccc4c3)cc2)co1 [compound 18, N-[(1S,2S)-2-hydroxycyclohexyl]-6-[[4-(2-methyloxazol-4-yl)phenyl]methyl]quinoline-8-carboxamide]
61 | 2170 | Cc1nc(-c2ccc(Cc3cc(C(=O)N[C@H]4CCC[C@@H]4O)c4ncccc4c3)cc2)co1 [compound 19, N-[(1S,2S)-2-hydroxycyclopentyl]-6-[[4-(2-methyloxazol-4-yl)phenyl]methyl]quinoline-8-carboxamide]
48 | 4360 | Cc1nc(-c2ccc(Cc3cc(C(=O)NC4CC5(COC5)C4)c4ncccc4c3)cc2)co1 [compound 20, 6-[[4-(2-methyloxazol-4-yl)phenyl]methyl]-N-(2-oxaspiro[3.3]heptan-6-yl)quinoline-8-carboxamide]
67 | 3140 | Cn1cc2c(-c3cc(F)c(Cc4cc(C(=O)N[C@H]5CCOC[C@@H]5O)c5ncccc5c4)c(F)c3)cccc2n1 [compound 21, 6-[[2,6-difluoro-4-(2-methylindazol-4-yl)phenyl]methyl]-N-[(3R,4S)-3-hydroxytetrahydropyran-4-yl]quinoline-8-carboxamide]
